Reference: the NIST ThermoML archive (doi:10.1021/je0603325)

Experiment: xn = mol fraction of the nth substance listed
Details: 101 kPa, Liquid

BrCCBr [1,2-dibromoethane] + CCCCCCC
Details | mass density [kg/m3] | speed of sound [m/s]
292.6 K, x1 = 0.6005 | – | 996.77
292.62 K, x1 = 0.2 | – | 1079.5
292.64 K, x1 = 0.1024 | – | 1112.1
292.64 K, x1 = 0.2986 | – | 1050.8
292.66 K, x1 = 0.6997 | – | 989.87
292.68 K, x1 = 0.4002 | – | 1027.2
292.68 K, x1 = 0.8004 | – | 989.25
292.7 K, x1 = 0.4996 | – | 1009.4
292.7 K, x1 = 0.9061 | – | 995.84
292.84 K, x1 = 1 | – | 1007.5
293.15 K, x1 = 0.1018 | 776.01 | –
293.15 K, x1 = 0.2052 | 878.46 | –
293.15 K, x1 = 0.2931 | 973.9 | –
293.15 K, x1 = 0.3754 | 1070.54 | –
293.15 K, x1 = 0.3919 | 1091.09 | –
293.15 K, x1 = 0.5009 | 1234.71 | –
293.15 K, x1 = 0.5993 | 1379.31 | –
293.15 K, x1 = 0.6916 | 1530.51 | –
293.15 K, x1 = 0.7886 | 1707.97 | –
293.15 K, x1 = 0.8919 | 1922 | –
293.15 K, x1 = 1 | 2178.77 | –
298.15 K, x1 = 0.1018 | 771.16 | –
298.15 K, x1 = 0.2052 | 872.98 | –
298.15 K, x1 = 0.2931 | 968 | –
298.15 K, x1 = 0.3754 | 1064.3 | –
298.15 K, x1 = 0.3919 | 1084.74 | –
298.15 K, x1 = 0.5009 | 1227.73 | –
298.15 K, x1 = 0.5993 | 1372.04 | –
298.15 K, x1 = 0.6916 | 1522.49 | –
298.15 K, x1 = 0.7886 | 1699.34 | –
298.15 K, x1 = 0.8919 | 1912.55 | –
298.15 K, x1 = 1 | 2168.41 | –
298.56 K, x1 = 0.1024 | – | 1088
298.56 K, x1 = 0.9061 | – | 980
298.58 K, x1 = 0.2 | – | 1056.5
298.59 K, x1 = 0.4996 | – | 990.17
298.59 K, x1 = 0.6005 | – | 978.03
298.6 K, x1 = 0.4002 | – | 1006.7
298.6 K, x1 = 0.6997 | – | 972.29
298.68 K, x1 = 0.8004 | – | 972.17
298.69 K, x1 = 0.2986 | – | 1028.6
299.17 K, x1 = 1 | – | 991.14
303.15 K, x1 = 0.1018 | 766.4 | –
303.15 K, x1 = 0.2052 | 867.72 | –
303.15 K, x1 = 0.2931 | 962.23 | –
303.15 K, x1 = 0.3754 | 1058 | –
303.15 K, x1 = 0.3919 | 1078.36 | –
303.15 K, x1 = 0.5009 | 1220.93 | –
303.15 K, x1 = 0.5993 | 1364.69 | –
303.15 K, x1 = 0.6916 | 1514.35 | –
303.15 K, x1 = 0.7886 | 1690.56 | –
303.15 K, x1 = 0.8919 | 1903.13 | –
303.15 K, x1 = 1 | 2157.94 | –
303.37 K, x1 = 1 | – | 980.18
303.54 K, x1 = 0.4002 | – | 989.74
303.57 K, x1 = 0.9061 | – | 966.53
303.59 K, x1 = 0.1024 | – | 1067.7
303.61 K, x1 = 0.2 | – | 1037.2
303.61 K, x1 = 0.6997 | – | 957.6
303.62 K, x1 = 0.6005 | – | 962.51
303.65 K, x1 = 0.2986 | – | 1010.6
303.66 K, x1 = 0.4996 | – | 973.72
303.78 K, x1 = 0.8004 | – | 957.87
308.15 K, x1 = 0.1018 | 761.38 | –
308.15 K, x1 = 0.2052 | 862.14 | –
308.15 K, x1 = 0.2931 | 956.31 | –
308.15 K, x1 = 0.3754 | 1051.8 | –
308.15 K, x1 = 0.3919 | 1071.93 | –
308.15 K, x1 = 0.5009 | 1213.97 | –
308.15 K, x1 = 0.5993 | 1357.19 | –
308.15 K, x1 = 0.6916 | 1506.3 | –
308.15 K, x1 = 0.7886 | 1681.76 | –
308.15 K, x1 = 0.8919 | 1893.55 | –
308.15 K, x1 = 1 | 2147.47 | –
308.44 K, x1 = 0.9061 | – | 953.47
308.57 K, x1 = 0.6997 | – | 943.03
308.58 K, x1 = 0.4002 | – | 972.63
308.59 K, x1 = 0.6005 | – | 947.22
308.59 K, x1 = 0.8004 | – | 944.46
308.62 K, x1 = 0.1024 | – | 1047.4
308.62 K, x1 = 0.2986 | – | 992.63
308.65 K, x1 = 0.2 | – | 1018
308.75 K, x1 = 1 | – | 966.56
309.57 K, x1 = 0.4996 | – | 954.55
313.15 K, x1 = 0.1018 | 756.39 | –
313.15 K, x1 = 0.2052 | 856.68 | –
313.15 K, x1 = 0.2931 | 950.37 | –
313.15 K, x1 = 0.3754 | 1045.35 | –
313.15 K, x1 = 0.3919 | 1065.57 | –
313.15 K, x1 = 0.5009 | 1207.14 | –
313.15 K, x1 = 0.5993 | 1349.51 | –
313.15 K, x1 = 0.6916 | 1498.2 | –
313.15 K, x1 = 0.7886 | 1673.14 | –
313.15 K, x1 = 0.8919 | 1884.12 | –
313.15 K, x1 = 1 | 2136.96 | –
314.45 K, x1 = 1 | – | 952
314.52 K, x1 = 0.9061 | – | 937.35
314.55 K, x1 = 0.6997 | – | 925.53
314.56 K, x1 = 0.2 | – | 995.72
314.58 K, x1 = 0.4002 | – | 952.25
314.58 K, x1 = 0.8004 | – | 927.74
314.59 K, x1 = 0.1024 | – | 1023.6
314.59 K, x1 = 0.4996 | – | 938.54
314.59 K, x1 = 0.6005 | – | 928.96
314.61 K, x1 = 0.2986 | – | 971.18
